This is an account of results in ChEMBL document CHEMBL1909046, “DrugMatrix in vitro pharmacology data”.

The first data set concerns the target Glycine receptor (Rattus norvegicus, UniProt P22771+P24524+P07727+P20781). In kind it is cell membranes, Wistar, Spinal cord, Membrane. Note: in other assays of this panel Not Active means under 50% inhibition at 10 µM.
Conditions: not given
On to `Nn1nnc2ccccc21`, for which the IC50 result is “Not Active”.
Regarding `CC[C@]1(O)CC[C@H]2[C@@H]3CCC4=CCCC[C@@H]4[C@H]3CC[C@@]21C`, the IC50 result is on record as “Not Active”.
On the same count and under the same terms, the result for `N[C@@H](Cc1ccc(F)cc1)C(=O)O` reads “Not Active”; that for `CCOC(=O)[C@H](CCc1ccccc1)N[C@@H](C)C(=O)N1Cc2ccccc2C[C@H]1C(=O)O`, “Not Active”; that for `O=C(c1ccccc1Cl)N1CCC(Cc2ccccc2)CC1`, “Not Active”.
Still for that read-out and setting: the result for `CCOC(=O)[C@H](CCc1ccccc1)N[C@@H](C)C(=O)N1CCC[C@H]1C(=O)O` reads “Not Active”; that for `Clc1cc2c(cc1Cl)Oc1cc(Cl)c(Cl)cc1O2` [2,3,7,8-TETRACHLORODIBENZO-P-DIOXIN], “Not Active”.

In a further data set the target is T1, Cytochrome P450 2A6 (Homo sapiens, UniProt P11509). Note: in other assays of this panel Not Active means under 50% inhibition at 10 µM.
T1 sequence (P11509 whole entry): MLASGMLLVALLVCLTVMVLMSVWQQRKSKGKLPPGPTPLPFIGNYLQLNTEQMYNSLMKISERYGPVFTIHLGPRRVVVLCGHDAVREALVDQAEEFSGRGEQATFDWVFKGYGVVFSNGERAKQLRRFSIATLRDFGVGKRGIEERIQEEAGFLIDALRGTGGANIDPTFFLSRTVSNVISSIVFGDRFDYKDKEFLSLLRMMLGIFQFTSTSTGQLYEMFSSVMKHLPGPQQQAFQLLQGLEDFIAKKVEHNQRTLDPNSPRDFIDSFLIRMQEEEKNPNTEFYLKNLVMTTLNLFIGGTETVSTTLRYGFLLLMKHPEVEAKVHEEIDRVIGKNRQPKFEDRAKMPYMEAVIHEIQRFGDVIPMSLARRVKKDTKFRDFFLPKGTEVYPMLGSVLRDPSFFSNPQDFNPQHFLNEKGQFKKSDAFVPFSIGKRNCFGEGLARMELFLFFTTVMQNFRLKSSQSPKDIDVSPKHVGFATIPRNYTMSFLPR
Particulars: bti-tn-5b1-4.
For the molecule `Nn1nnc2ccccc21`, the IC50 result is “Not Active” and the Ki entry is “Not Active”.
With `CC[C@]1(O)CC[C@H]2[C@@H]3CCC4=CCCC[C@@H]4[C@H]3CC[C@@]21C`, the IC50 entry was “Not Active” and the Ki entry is on record as “Not Active”.
As for `CCOC(=O)[C@H](CCc1ccccc1)N[C@@H](C)C(=O)N1Cc2ccccc2C[C@H]1C(=O)O`, the IC50 result is “Not Active” and the Ki result is reported as “Not Active”.
For `O=C(c1ccccc1Cl)N1CCC(Cc2ccccc2)CC1`, the IC50 result is “Not Active” and the Ki entry is recorded as “Not Active”.
For `CCOC(=O)[C@H](CCc1ccccc1)N[C@@H](C)C(=O)N1CCC[C@H]1C(=O)O`, the IC50 entry is reported as “Not Active” and the Ki entry is recorded as “Not Active”.
`Clc1cc2c(cc1Cl)Oc1cc(Cl)c(Cl)cc1O2` [2,3,7,8-TETRACHLORODIBENZO-P-DIOXIN]: the IC50 result is “Not Active” and the Ki result is “Not Active”.

Another data set deals with Sodium-dependent dopamine transporter (Homo sapiens, UniProt Q01959). Description: DRUGMATRIX: Dopamine Transporter radioligand binding (ligand: [125I] RTI-55). In kind it is cell membranes, CHO-K1, Membrane. Particulars: cho-k1; Not Active = under 50% inhibition at 10 µM.
Chain of Sodium-dependent dopamine transporter (Q01959 whole entry): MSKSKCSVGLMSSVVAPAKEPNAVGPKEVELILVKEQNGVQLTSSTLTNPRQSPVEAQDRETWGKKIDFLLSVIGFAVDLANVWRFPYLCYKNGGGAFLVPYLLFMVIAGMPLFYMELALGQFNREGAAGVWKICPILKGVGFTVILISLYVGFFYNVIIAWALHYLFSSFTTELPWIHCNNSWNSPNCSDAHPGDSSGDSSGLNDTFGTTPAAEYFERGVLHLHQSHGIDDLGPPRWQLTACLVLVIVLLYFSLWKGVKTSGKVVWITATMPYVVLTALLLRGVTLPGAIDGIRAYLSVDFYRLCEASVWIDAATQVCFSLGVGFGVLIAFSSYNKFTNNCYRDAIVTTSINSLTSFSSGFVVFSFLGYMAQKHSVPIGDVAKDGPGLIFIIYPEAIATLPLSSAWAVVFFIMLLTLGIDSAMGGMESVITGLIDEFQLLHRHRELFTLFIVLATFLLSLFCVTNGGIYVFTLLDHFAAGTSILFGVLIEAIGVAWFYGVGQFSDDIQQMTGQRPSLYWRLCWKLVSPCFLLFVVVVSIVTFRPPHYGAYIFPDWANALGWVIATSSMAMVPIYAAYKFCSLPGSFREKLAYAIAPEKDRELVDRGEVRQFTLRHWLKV
Consider `Nn1nnc2ccccc21`, for which the IC50 result is reported as “Not Active”.
Turning to `CC[C@]1(O)CC[C@H]2[C@@H]3CCC4=CCCC[C@@H]4[C@H]3CC[C@@]21C`, the IC50 entry is given as “Not Active”.
On to `N[C@@H](Cc1ccc(F)cc1)C(=O)O`, for which the IC50 entry is “Not Active”.
As for `CCOC(=O)[C@H](CCc1ccccc1)N[C@@H](C)C(=O)N1Cc2ccccc2C[C@H]1C(=O)O`, the IC50 entry is “Not Active”.
For `O=C(c1ccccc1Cl)N1CCC(Cc2ccccc2)CC1`, the IC50 result is “Not Active”.
On the same count and under the same terms, the result for `CCOC(=O)[C@H](CCc1ccccc1)N[C@@H](C)C(=O)N1CCC[C@H]1C(=O)O` reads “Not Active”; that for `Clc1cc2c(cc1Cl)Oc1cc(Cl)c(Cl)cc1O2` [2,3,7,8-TETRACHLORODIBENZO-P-DIOXIN], “Not Active”.

The target of the next data set is Histamine H2 receptor (Homo sapiens, UniProt P25021). It counts as cell membranes, CHO-K1, Membrane. Particulars: cho-k1. Note: in other assays of this panel Not Active means under 50% inhibition at 10 µM.
Chain of Histamine H2 receptor (P25021 whole entry): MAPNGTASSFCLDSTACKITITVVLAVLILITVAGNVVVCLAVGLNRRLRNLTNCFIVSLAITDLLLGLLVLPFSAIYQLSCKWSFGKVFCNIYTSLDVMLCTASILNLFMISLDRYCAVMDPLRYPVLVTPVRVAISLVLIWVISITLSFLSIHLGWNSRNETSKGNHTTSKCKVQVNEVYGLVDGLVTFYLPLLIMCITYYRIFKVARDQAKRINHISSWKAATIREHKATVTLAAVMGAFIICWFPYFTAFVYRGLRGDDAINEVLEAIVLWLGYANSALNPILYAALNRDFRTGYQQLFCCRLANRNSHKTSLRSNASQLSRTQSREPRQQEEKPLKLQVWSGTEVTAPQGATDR
`Nn1nnc2ccccc21`: the IC50 result is listed as “Not Active”.
Regarding `CC[C@]1(O)CC[C@H]2[C@@H]3CCC4=CCCC[C@@H]4[C@H]3CC[C@@]21C`, the IC50 entry is “Not Active”.
In the case of `N[C@@H](Cc1ccc(F)cc1)C(=O)O`, the IC50 result is “Not Active”.
`CCOC(=O)[C@H](CCc1ccccc1)N[C@@H](C)C(=O)N1Cc2ccccc2C[C@H]1C(=O)O`: the IC50 entry is “Not Active”.
Consider `O=C(c1ccccc1Cl)N1CCC(Cc2ccccc2)CC1`, for which the IC50 result is recorded as “Not Active”.
Still for that read-out and setting: for `CCOC(=O)[C@H](CCc1ccccc1)N[C@@H](C)C(=O)N1CCC[C@H]1C(=O)O` the value was “Not Active”; for `Clc1cc2c(cc1Cl)Oc1cc(Cl)c(Cl)cc1O2` [2,3,7,8-TETRACHLORODIBENZO-P-DIOXIN], “Not Active”.

System in another data set: not listed separately
The experiment in a line: DRUGMATRIX: GABAA, Flunitrazepam, Central radioligand binding (ligand: [3H] Flunitrazepam). In kind it is cell membranes, Rattus norvegicus, Wistar, Brain, Membrane. The following applies: Not Active = under 50% inhibition at 10 µM.
In the case of `Nn1nnc2ccccc21`, the IC50 entry is recorded as “Not Active” and the Ki result is on record as “Not Active”.
On to `CC[C@]1(O)CC[C@H]2[C@@H]3CCC4=CCCC[C@@H]4[C@H]3CC[C@@]21C`, for which the IC50 entry is reported as “Not Active” and the Ki result was “Not Active”.
On to `N[C@@H](Cc1ccc(F)cc1)C(=O)O`, for which the IC50 entry is given as “Not Active” and the Ki result is reported as “Not Active”.
As to `CCOC(=O)[C@H](CCc1ccccc1)N[C@@H](C)C(=O)N1Cc2ccccc2C[C@H]1C(=O)O`, the IC50 entry is “Not Active” and the Ki entry is given as “Not Active”.
Consider `O=C(c1ccccc1Cl)N1CCC(Cc2ccccc2)CC1`, for which the IC50 entry was “Not Active” and the Ki result is reported as “Not Active”.
`CCOC(=O)[C@H](CCc1ccccc1)N[C@@H](C)C(=O)N1CCC[C@H]1C(=O)O`: the IC50 entry is on record as “Not Active” and the Ki result is on record as “Not Active”.
With `Clc1cc2c(cc1Cl)Oc1cc(Cl)c(Cl)cc1O2` [2,3,7,8-TETRACHLORODIBENZO-P-DIOXIN], the IC50 result was “Not Active” and the Ki result is recorded as “Not Active”.

The target of a further data set is Protein kinase C alpha type (Homo sapiens, UniProt P17252). It counts as cell-based. Particulars: sf9.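 Note: inhibition of PKCalpha kinase activity measured in an enzyme assay with histone as the phosphorylation substrate; in other assays of this panel Not Active means under 50% inhibition at 10 µM.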
Consider `Nn1nnc2ccccc21`, for which the IC50 result was “Not Active”.
Same read-out and setting: for `CC[C@]1(O)CC[C@H]2[C@@H]3CCC4=CCCC[C@@H]4[C@H]3CC[C@@]21C` the value was “Not Active”; for `N[C@@H](Cc1ccc(F)cc1)C(=O)O`, “Not Active”; for `CCOC(=O)[C@H](CCc1ccccc1)N[C@@H](C)C(=O)N1Cc2ccccc2C[C@H]1C(=O)O`, “Not Active”.
Regarding `O=C(c1ccccc1Cl)N1CCC(Cc2ccccc2)CC1`, the IC50 entry was “Not Active”.
`CCOC(=O)[C@H](CCc1ccccc1)N[C@@H](C)C(=O)N1CCC[C@H]1C(=O)O`: the IC50 entry is “Not Active”.
Turning to `Clc1cc2c(cc1Cl)Oc1cc(Cl)c(Cl)cc1O2` [2,3,7,8-TETRACHLORODIBENZO-P-DIOXIN], the IC50 entry is given as “Not Active”.

The target in a further data set is T2, C-C chemokine receptor type 4 (Homo sapiens, UniProt P51679). Note: in other assays of this panel Not Active means under 50% inhibition at 10 µM.
T2 sequence (P51679 whole entry): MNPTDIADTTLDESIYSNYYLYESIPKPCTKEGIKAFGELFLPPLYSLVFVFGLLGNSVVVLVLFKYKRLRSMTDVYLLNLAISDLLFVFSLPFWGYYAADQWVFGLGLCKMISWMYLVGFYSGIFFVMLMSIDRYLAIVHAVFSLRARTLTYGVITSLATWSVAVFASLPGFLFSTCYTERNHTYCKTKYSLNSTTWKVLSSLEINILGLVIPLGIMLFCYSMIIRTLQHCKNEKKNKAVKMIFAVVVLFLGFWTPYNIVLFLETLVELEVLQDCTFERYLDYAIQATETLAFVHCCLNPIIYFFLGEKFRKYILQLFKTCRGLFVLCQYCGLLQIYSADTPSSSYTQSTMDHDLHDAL
It counts as cell membranes, Membrane. The following applies: chem-1.
`Nn1nnc2ccccc21`: the IC50 result was “Not Active”.
Still for that read-out and setting: for `CC[C@]1(O)CC[C@H]2[C@@H]3CCC4=CCCC[C@@H]4[C@H]3CC[C@@]21C` the value was “Not Active”; for `N[C@@H](Cc1ccc(F)cc1)C(=O)O`, “Not Active”.
With `CCOC(=O)[C@H](CCc1ccccc1)N[C@@H](C)C(=O)N1Cc2ccccc2C[C@H]1C(=O)O`, the IC50 result is “Not Active”.
`O=C(c1ccccc1Cl)N1CCC(Cc2ccccc2)CC1`: the IC50 result is “Not Active”.
On to `CCOC(=O)[C@H](CCc1ccccc1)N[C@@H](C)C(=O)N1CCC[C@H]1C(=O)O`, for which the IC50 result is “Not Active”.
With `Clc1cc2c(cc1Cl)Oc1cc(Cl)c(Cl)cc1O2` [2,3,7,8-TETRACHLORODIBENZO-P-DIOXIN], the IC50 entry is “Not Active”.

The target in the next data set is T3, Receptor-type tyrosine-protein phosphatase C (Homo sapiens, UniProt P08575).
T3 sequence (P08575 whole entry): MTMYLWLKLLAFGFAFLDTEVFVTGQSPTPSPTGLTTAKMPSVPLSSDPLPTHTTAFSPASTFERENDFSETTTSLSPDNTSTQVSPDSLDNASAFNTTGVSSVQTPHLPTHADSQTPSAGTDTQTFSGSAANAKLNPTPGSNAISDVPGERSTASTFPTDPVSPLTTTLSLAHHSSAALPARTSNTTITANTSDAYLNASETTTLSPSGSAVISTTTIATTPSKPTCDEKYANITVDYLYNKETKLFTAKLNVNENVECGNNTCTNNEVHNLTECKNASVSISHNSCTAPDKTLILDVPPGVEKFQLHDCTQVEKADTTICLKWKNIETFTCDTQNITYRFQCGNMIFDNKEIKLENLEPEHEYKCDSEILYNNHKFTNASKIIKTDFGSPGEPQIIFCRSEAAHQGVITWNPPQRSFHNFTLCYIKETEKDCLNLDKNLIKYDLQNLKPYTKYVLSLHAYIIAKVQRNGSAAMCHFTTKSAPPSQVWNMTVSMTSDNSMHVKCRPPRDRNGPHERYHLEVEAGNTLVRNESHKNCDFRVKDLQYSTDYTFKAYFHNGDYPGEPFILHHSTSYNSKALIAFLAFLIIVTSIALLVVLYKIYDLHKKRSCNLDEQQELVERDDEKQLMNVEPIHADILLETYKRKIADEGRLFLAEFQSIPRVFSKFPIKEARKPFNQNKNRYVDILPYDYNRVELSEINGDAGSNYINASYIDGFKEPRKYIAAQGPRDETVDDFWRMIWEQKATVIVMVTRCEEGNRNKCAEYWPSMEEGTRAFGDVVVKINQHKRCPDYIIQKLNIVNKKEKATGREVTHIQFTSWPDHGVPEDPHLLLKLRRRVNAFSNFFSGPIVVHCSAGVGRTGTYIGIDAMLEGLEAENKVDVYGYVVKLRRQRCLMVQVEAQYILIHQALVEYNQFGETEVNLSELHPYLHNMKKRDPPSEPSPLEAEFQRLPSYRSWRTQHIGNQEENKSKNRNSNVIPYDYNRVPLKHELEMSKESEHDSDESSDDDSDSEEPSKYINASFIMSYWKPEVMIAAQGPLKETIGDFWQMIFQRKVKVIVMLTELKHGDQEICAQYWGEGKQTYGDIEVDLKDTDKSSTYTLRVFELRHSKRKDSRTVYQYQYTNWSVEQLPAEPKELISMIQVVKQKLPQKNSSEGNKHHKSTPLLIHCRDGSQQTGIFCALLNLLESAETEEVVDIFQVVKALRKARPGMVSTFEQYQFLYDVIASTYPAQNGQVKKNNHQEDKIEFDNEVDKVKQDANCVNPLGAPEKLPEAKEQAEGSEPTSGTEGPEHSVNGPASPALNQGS
Details: species or system Escherichia coli.
Conditions: not given
`Nn1nnc2ccccc21`: the IC50 result is reported as “Not Active”.
Same read-out and setting: the result for `CC[C@]1(O)CC[C@H]2[C@@H]3CCC4=CCCC[C@@H]4[C@H]3CC[C@@]21C` reads “Not Active”; that for `N[C@@H](Cc1ccc(F)cc1)C(=O)O`, “Not Active”; that for `CCOC(=O)[C@H](CCc1ccccc1)N[C@@H](C)C(=O)N1Cc2ccccc2C[C@H]1C(=O)O`, “Not Active”.
With `O=C(c1ccccc1Cl)N1CCC(Cc2ccccc2)CC1`, the IC50 entry was “Not Active”.
Regarding `CCOC(=O)[C@H](CCc1ccccc1)N[C@@H](C)C(=O)N1CCC[C@H]1C(=O)O`, the IC50 entry is “Not Active”.
As to `Clc1cc2c(cc1Cl)Oc1cc(Cl)c(Cl)cc1O2` [2,3,7,8-TETRACHLORODIBENZO-P-DIOXIN], the IC50 entry was “Not Active”.
